# Laboratory results from patent publication US12180187B2, “1-phenyl-5-azinylpyrazolyl-3-oxyalkyl acids and their use for controlling unwanted plant growth” (BAYER AKTIENGESELLSCHAFT, priority 2019, dated 2024).
# Assays:
# [1] = tested on: AMARE; assay: Pre-emergence action against AMARE, 1280 g/ha; type: in vivo, Amaranthus retroflexus; conditions: scored visually after about 3 weeks vs untreated controls (100% = plants have died)
# Summary of the method: (§1)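 In greenhouse pots of sandy loam, sown weed seeds were covered with soil and treated pre-emergence with the compound in water (600 L/ha, 0.5% additive). Efficacy was assessed visually as percent of untreated control after about 3 weeks.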
# [2] = tested on: VERPE; assay: Post-emergence action against VERPE, 1.28 kg/ha; type: in vivo, Veronica persica; conditions: dosage 1280 g/ha, visual rating about 3 weeks after treatment vs untreated controls (100% = plants died)
# Summary of the method: (§2)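 Post-emergence greenhouse spray, one-leaf stage (2–3 wk after sowing), sandy loam. WP/EC, aqueous + 0.5% additive, 600 L/ha water. Visual % activity vs untreated, ~3 wk after treatment; 100% = plants dead.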
# [3] = tested on: VERPE; assay: Pre-emergence action against VERPE, 1280 g/ha; type: in vivo, Veronica persica; conditions: scored visually after about 3 weeks vs untreated controls (100% = plants have died)
# Summary of the method: as §1
# [4] = tested on: POAAN; assay: Pre-emergence action against POAAN, 1280 g/ha; type: in vivo, Poa annua; conditions: visual scoring after about 3 weeks vs untreated controls, 100% = plants have died, 0% = like control plants
# Summary of the method: as §1
# [5] = tested on: POAAN; assay: Post-emergence action against POAAN, 1.28 kg/ha; type: in vivo, Poa annua; conditions: dosage 1280 g/ha, visual rating about 3 weeks after treatment vs untreated controls
# Summary of the method: as §2
# [6] = tested on: STEME; assay: Pre-emergence action against STEME, 1280 g/ha; type: in vivo, Stellaria media; conditions: scored visually after about 3 weeks vs untreated controls (100% = plants have died)
# Summary of the method: as §1
# [7] = tested on: ECHCG; assay: Post-emergence action against ECHCG, 1.28 kg/ha; type: in vivo, Echinochloa crus-galli; conditions: dosage 1280 g/ha, visual rating about 3 weeks after treatment vs untreated controls
# Summary of the method: as §2
# [8] = tested on: SETVI; assay: Pre-emergence action against SETVI, 1280 g/ha; type: in vivo, Setaria viridis; conditions: visual scoring after about 3 weeks vs untreated controls, 100% = plants have died, 0% = like control plants
# Summary of the method: as §1
# [9] = tested on: ABUTH; assay: Pre-emergence action against ABUTH, 1280 g/ha; type: in vivo, Abutilon theophrasti; conditions: scored visually after about 3 weeks vs untreated controls (100% = plants have died)
# Description: 1. Pre-Emergence Herbicidal Effect and Crop Plant Compatibility a) Seeds of mono- and dicotyledonous weed plants are placed in plastic pots in sandy loam soil (doubly sown with one species each of mono- or dicotyledonous weed plants per pot) and covered with soil. The compounds of the invention, formulated in the form of wettable powders (WP) or as emulsion concentrates (EC), are then applied onto the surface of the covering soil as aqueous suspension or emulsion with addition of 0.5% additive at a water application rate equivalent to 600 litres per hectare. After the treatment, the pots are placed in a greenhouse and kept under good growth conditions for the trial plants. After about 3 weeks, the effect of the preparations is scored visually in comparison with untreated controls as percentages. For example, 100% activity=the plants have died, 0% activity=like control plants. 1. Pre-Emergence Effectiveness Tables 1 to 12 below show the effects of selected compounds of the general formula (I) according to Tables 1 and 2 on various harmful plants and at an application rate corresponding to 1280 g/ha, which were obtained by the experimental procedure mentioned above.
# [10] = tested on: DIGSA; assay: Pre-emergence action against DIGSA, 1280 g/ha; type: in vivo, Digitaria sanguinalis; conditions: visual scoring after about 3 weeks vs untreated controls, 100% = plants have died, 0% = like control plants
# Summary of the method: as §1
# [11] = tested on: ABUTH; assay: Post-emergence action against ABUTH, 1.28 kg/ha; type: in vivo, Abutilon theophrasti; conditions: dosage 1280 g/ha, visual rating about 3 weeks after treatment vs untreated controls (100% = plants died)
# Summary of the method: as §2
# [12] = tested on: MATIN; assay: Pre-emergence action against MATIN, 1280 g/ha; type: in vivo, Tripleurospermum inodorum (Matricaria inodora); conditions: scored visually after about 3 weeks vs untreated controls (100% = plants have died)
# Summary of the method: as §1
# [13] = tested on: ALOMY; assay: Post-emergence action against ALOMY, 1.28 kg/ha; type: in vivo, Alopecurus myosuroides; conditions: dosage 1280 g/ha, visual rating about 3 weeks after treatment vs untreated controls
# Summary of the method: as §2
# [14] = tested on: LOLRI; assay: Pre-emergence action against LOLRI, 1280 g/ha; type: in vivo, Lolium rigidum; conditions: visual scoring after about 3 weeks vs untreated controls, 100% = plants have died, 0% = like control plants
# Summary of the method: as §1
# [15] = tested on: KCHSC; assay: Post-emergence action against KCHSC, 1.28 kg/ha; type: in vivo, Bassia scoparia; conditions: dosage 1280 g/ha, visual rating about 3 weeks after treatment vs untreated controls (100% = plants died)
# Summary of the method: as §2
# [16] = tested on: AMARE; assay: Post-emergence action against AMARE, 1.28 kg/ha; type: in vivo, Amaranthus retroflexus; conditions: dosage 1280 g/ha, visual rating about 3 weeks after treatment vs untreated controls (100% = plants died)
# Summary of the method: as §2
# [17] = tested on: KCHSC; assay: Pre-emergence action against KCHSC, 1280 g/ha; type: in vivo, Bassia scoparia; conditions: scored visually after about 3 weeks vs untreated controls (100% = plants have died)
# Summary of the method: as §1
# [18] = tested on: STEME; assay: Post-emergence action against STEME, 1.28 kg/ha; type: in vivo, Stellaria media; conditions: dosage 1280 g/ha, visual rating about 3 weeks after treatment vs untreated controls (100% = plants died)
# Summary of the method: as §2
# [19] = tested on: ECHCG; assay: Pre-emergence action against ECHCG, 1280 g/ha; type: in vivo, Echinochloa crus-galli; conditions: visual scoring after about 3 weeks vs untreated controls, 100% = plants have died, 0% = like control plants
# Summary of the method: as §1
# [20] = tested on: ALOMY; assay: Pre-emergence action against ALOMY, 1280 g/ha; type: in vivo, Alopecurus myosuroides; conditions: visual scoring after about 3 weeks vs untreated controls, 100% = plants have died, 0% = like control plants
# Summary of the method: as §1
# [21] = tested on: MATIN; assay: Post-emergence action against MATIN, 1.28 kg/ha; type: in vivo, Tripleurospermum inodorum (Matricaria inodora); conditions: dosage 1280 g/ha, visual rating about 3 weeks after treatment vs untreated controls (100% = plants died)
# Summary of the method: as §2
# [22] = tested on: DIGSA; assay: Post-emergence action against DIGSA, 1.28 kg/ha; type: in vivo, Digitaria sanguinalis; conditions: dosage 1280 g/ha, visual rating about 3 weeks after treatment vs untreated controls
# Summary of the method: as §2
# [23] = tested on: LOLRI; assay: Post-emergence action against LOLRI, 1.28 kg/ha; type: in vivo, Lolium rigidum; conditions: dosage 1280 g/ha, visual rating about 3 weeks after treatment vs untreated controls
# Summary of the method: as §2
# [24] = tested on: SETVI; assay: Post-emergence action against SETVI, 1.28 kg/ha; type: in vivo, Setaria viridis; conditions: dosage 1280 g/ha, visual rating about 3 weeks after treatment vs untreated controls
# Summary of the method: as §2
Compound,Pre-emergence action against AMARE [1] [%],Post-emergence action against VERPE [2] [%],Pre-emergence action against VERPE [3] [%],Pre-emergence action against POAAN [4] [%],Post-emergence action against POAAN [5] [%],Pre-emergence action against STEME [6] [%],Post-emergence action against ECHCG [7] [%],Pre-emergence action against SETVI [8] [%],Pre-emergence action against ABUTH [9] [%],Pre-emergence action against DIGSA [10] [%],Post-emergence action against ABUTH [11] [%],Pre-emergence action against MATIN [12] [%],Post-emergence action against ALOMY [13] [%],Pre-emergence action against LOLRI [14] [%],Post-emergence action against KCHSC [15] [%],Post-emergence action against AMARE [16] [%],Pre-emergence action against KCHSC [17] [%],Post-emergence action against STEME [18] [%],Pre-emergence action against ECHCG [19] [%],Pre-emergence action against ALOMY [20] [%],other results
O=C(O)COc1nn(-c2ccccc2F)c(-c2ccc(F)nc2)c1C(F)(F)F [VII-030],100,90,90,100,100,100,100,100,90,90,90,90,100,100,90,90,90,100,90,–,–
COC(=O)[C@@H](C)Oc1nn(-c2cc(F)ccc2F)c(-c2ccc(F)nc2)c1C#N [VII-099],100,100,100,100,100,100,–,100,90,100,90,100,100,100,100,100,100,100,100,90,Post-emergence action against MATIN [21]: 100%; Post-emergence action against DIGSA [22]: 100%; Post-emergence action against LOLRI [23]: 100%
COC(=O)[C@@H](C)Oc1nn(-c2ccccc2F)c(-c2ccc(F)nc2)c1Br [VII-123-a],100,90,100,100,100,100,100,100,90,100,90,100,100,100,90,90,100,100,100,100,Post-emergence action against MATIN [21]: 90%; Post-emergence action against SETVI [24]: 100%; Post-emergence action against LOLRI [23]: 100%
